Results published in article PMC4776319 (Water research, 2015).
pEC50, pIC50: −log10 of the molar value. Read-outs that look alike come from different tables or passages of the source.

Columns and labels:
[1] = test system: neuroblastoma cells (SK-N-SH)
[2] = target: T1, glucocorticoid receptor (GR) (Homo sapiens, UniProt P04150); assay: GR-Switchgear; assay type: cell-based; conditions: reference chemical
T1 sequence (P04150 1-777): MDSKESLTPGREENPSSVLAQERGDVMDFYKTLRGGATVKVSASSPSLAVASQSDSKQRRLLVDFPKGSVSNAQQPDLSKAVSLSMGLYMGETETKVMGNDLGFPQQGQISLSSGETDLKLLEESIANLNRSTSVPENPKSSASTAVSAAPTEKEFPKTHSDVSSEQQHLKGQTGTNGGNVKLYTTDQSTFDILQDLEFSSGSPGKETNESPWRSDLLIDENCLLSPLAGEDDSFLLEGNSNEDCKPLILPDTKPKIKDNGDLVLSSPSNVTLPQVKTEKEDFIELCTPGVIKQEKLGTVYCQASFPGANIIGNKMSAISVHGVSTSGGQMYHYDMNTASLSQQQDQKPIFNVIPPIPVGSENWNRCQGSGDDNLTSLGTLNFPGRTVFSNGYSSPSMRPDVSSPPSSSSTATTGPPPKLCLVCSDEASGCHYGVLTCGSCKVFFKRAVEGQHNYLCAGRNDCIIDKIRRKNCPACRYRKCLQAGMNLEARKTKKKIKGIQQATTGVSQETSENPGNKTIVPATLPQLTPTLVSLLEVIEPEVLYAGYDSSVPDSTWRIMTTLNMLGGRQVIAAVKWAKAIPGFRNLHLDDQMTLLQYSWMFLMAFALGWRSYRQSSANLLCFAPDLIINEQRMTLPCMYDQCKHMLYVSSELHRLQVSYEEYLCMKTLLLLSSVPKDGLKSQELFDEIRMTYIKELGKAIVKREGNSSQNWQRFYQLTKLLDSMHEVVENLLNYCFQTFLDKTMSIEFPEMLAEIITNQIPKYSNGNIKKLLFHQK

[3] = test system: monocyte cell line (THP1); conditions: read-out: EC50 value in literature; ref Leusch et al., 2014; cited from earlier work
[4] = test system: monocyte cell line (THP1); assay: THP1-cp cytokine production
algae photosynthesis [5] = assay: I-PAM algae photosynthesis inhibition; assay type: cell-based
algae growth [6] = assay: Algae growth inhibition; assay type: cell-based
algae photosynthesis [7] = conditions: read-out: EC50 value in literature, cited from earlier work
algae growth [8] = conditions: read-out: EC50 value in literature; ref Escher et al., 2008a; cited from earlier work
[9] = target: T2, peroxisome proliferator-activated receptor (PPARγ) (Homo sapiens, UniProt P37231); assay: PPARγ-GeneBLAzer-Anta; assay type: cell-based; conditions: antagonist mode
T2 sequence (P37231 238-505 limits assumed): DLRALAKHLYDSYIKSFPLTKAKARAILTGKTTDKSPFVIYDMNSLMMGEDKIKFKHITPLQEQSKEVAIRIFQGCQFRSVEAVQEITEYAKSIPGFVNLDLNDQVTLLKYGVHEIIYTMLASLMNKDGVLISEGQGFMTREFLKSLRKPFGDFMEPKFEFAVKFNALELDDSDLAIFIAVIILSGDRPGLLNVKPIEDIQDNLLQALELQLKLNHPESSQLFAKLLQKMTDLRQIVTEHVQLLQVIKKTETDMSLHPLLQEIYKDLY

[10] = target: T2, peroxisome proliferator-activated receptor (PPARγ); conditions: read-out: EC50 value in literature; antagonist mode; ref Invitrogen, 2007b; cited from earlier work
[11] = target: T3, progesterone receptor (PR) (Homo sapiens, UniProt P06401); assay: PR-CALUX progestagenic effects; assay type: cell-based; conditions: reference chemical
T3 sequence (P06401 1-933): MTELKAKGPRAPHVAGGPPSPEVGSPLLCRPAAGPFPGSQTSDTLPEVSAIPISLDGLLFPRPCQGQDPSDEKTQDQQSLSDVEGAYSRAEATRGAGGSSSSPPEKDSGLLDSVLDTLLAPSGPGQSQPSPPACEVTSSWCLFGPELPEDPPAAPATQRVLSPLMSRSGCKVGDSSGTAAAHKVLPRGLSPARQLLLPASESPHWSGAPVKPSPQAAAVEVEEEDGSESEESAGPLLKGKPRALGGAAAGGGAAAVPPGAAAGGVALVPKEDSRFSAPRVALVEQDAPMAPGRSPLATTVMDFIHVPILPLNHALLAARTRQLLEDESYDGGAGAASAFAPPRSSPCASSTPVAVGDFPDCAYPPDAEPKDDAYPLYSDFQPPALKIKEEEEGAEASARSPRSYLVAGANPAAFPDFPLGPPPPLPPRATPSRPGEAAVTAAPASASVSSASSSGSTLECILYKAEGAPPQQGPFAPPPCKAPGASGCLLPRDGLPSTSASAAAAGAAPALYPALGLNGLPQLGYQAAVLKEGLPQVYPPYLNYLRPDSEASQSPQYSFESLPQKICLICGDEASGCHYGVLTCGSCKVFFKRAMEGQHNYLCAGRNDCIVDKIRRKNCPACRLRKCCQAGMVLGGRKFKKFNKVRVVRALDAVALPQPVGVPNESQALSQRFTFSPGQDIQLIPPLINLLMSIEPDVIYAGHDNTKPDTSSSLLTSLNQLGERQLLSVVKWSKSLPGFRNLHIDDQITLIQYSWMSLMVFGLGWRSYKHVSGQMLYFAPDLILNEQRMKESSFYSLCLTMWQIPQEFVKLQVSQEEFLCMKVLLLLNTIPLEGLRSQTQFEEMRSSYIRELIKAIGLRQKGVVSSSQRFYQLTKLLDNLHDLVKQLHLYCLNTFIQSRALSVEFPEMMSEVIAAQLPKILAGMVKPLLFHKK

Caco-2 cells = assay: Caco-2 NRU cytotoxicity; assay type: cell-based, human; conditions: carrier solvent as positive control
[12] = target: T3, progesterone receptor (PR); assay: PR-CALUX-Anta; assay type: cell-based; conditions: antagonist mode, 20% suppression
Jurkat cell line = assay: Jurkat E6-1 osmotic stress assay; assay type: cell-based; conditions: reference chemical
[13] = test system: arylhydrocarbon receptor (AhR); assay: AhR CAFLUX; assay type: cell-based; conditions: reference chemical
[14] = test system: arylhydrocarbon receptor (AhR); conditions: read-out: EC50 value in literature; ref Macova et al., 2010; cited from earlier work
[15] = test system: thyroid activity (cell proliferation); assay: T-SCREEN cell proliferation assay, thyroid effects; assay type: cell-based
[16] = test system: thyroid activity (cell proliferation); conditions: read-out: EC50 value in literature; ref Gutleb et al., 2005; cited from earlier work
Nrf2-MDA-MB cells [17] = assay: cells; assay type: cell-based, human
Nrf2-Keap-ARE32 pathway = conditions: read-out: EC50 value in literature; ref Escher et al., 2012; cited from earlier work
Nrf2-MDA-MB cells [18] = conditions: read-out: EC50 value in literature; ref Escher et al., 2012; cited from earlier work

## C[S+](C)[O-] [DMSO, Dimethylsulfoxide]
[1]
  EC10: 0.11 M

## C[C@@H]1C[C@H]2[C@@H]3CCC4=CC(=O)C=C[C@]4(C)[C@@]3(F)[C@@H](O)C[C@]2(C)[C@@]1(O)C(=O)CO [Dexamethasone]
[2]
  EC10: EC10 (0.5 nM); EC50 (2.6 nM)
[3]
  pEC50: 8.57
[4]; Homo sapiens, THP-1
  pEC50: 7.35
[4]; reference chemical
  EC10: 2.1 nM

## CN(C)C(=O)Nc1ccc(Cl)c(Cl)c1 [Diuron]
Algae photosynthesis [5]
  pEC50: 8.22
Algae growth [6]
  pEC50: 7.60
Algae photosynthesis [7]; ref Escher et al., 2008a
  pEC50: 7.89
Algae photosynthesis [7]; ref Macova et al., 2010
  pEC50: 7.16
Algae growth [8]
  pEC50: 6.87

## O=C(Nc1ccccc1)c1cc([N+](=O)[O-])ccc1Cl [GW9662]
[9]; 20% suppression
  ECSR0.2: 3.0 nM
[9]; read-out: ECSR0.5, 50% suppression
  pIC50: 8.08
[10]
  pEC50: 8.46

## C#C[C@]1(O)CC[C@H]2[C@@H]3CCC4=CC(=O)CC[C@@H]4[C@H]3CC[C@@]21CC [Levonorgestrel]
[11]
  EC10: 0.3 nM

## CO [Methanol]
Caco-2 cells
  EC10: 0.4 M

## CC#C[C@]1(O)CC[C@H]2[C@@H]3CCC4=CC(=O)CCC4=C3[C@@H](c3ccc(N(C)C)cc3)C[C@@]21C [Mifepristone]
[12]
  ECSR0.2: 20 pM

## CCCCCCCCCCCCCC(=O)O[C@@H]1[C@@H](C)[C@@]2(O)[C@@H](C=C(CO)C[C@]3(O)C(=O)C(C)=C[C@@H]23)[C@@H]2C(C)(C)[C@]12OC(C)=O [PMA, Phorbol-12-myristate-13-acetate]
Jurkat cell line
  EC10: 3 nM
  pEC50: 7.70

## Clc1cc2c(cc1Cl)Oc1cc(Cl)c(Cl)cc1O2 [TCDD, 2,3,7,8-TCDD]
[13]
  EC10: 0.00065 nM
  pEC50: 11.10
[14]
  pEC50: 10.61

## N[C@@H](Cc1cc(I)c(Oc2ccc(O)c(I)c2)c(I)c1)C(=O)O [Triiodothyronine]
[15]
  pEC50: 9.13
[15]; reference chemical
  EC10: 0.28 nM
[16]
  pEC50: 9.72

## CC(C)(C)c1cc(O)ccc1O [tBHQ, tert-Butylhydroquinone]
Nrf2-MDA-MB cells [17]; Homo sapiens
  pEC50: 3.75
Nrf2-MDA-MB cells [17]; human
  EC10: 103000 nM
Nrf2-Keap-ARE32 pathway
  pEC50: 5.88
Nrf2-MDA-MB cells [18]
  pEC50: 4.34
